Results: patent US8999940B2 (Ipsen Pharma S.A.S., priority 2008, dated 2015)
Where no end group is shown, it is not given here. [ ]: non-standard residue; d: D form. The star is where a group is joined. Desaminotyrosyl = O=C(CCc1ccc(O)cc1)*; Pip = O=C(O)[C@@H]1CCCCN1; Ac6c = NC1(C(=O)O)CCCCC1

What was measured:
[1] = Human plasma half-life assay; assay type: in vitro ADME; details: 37° C., LC-MS, read-out: Human Plasma T½ (converted)
[2] = Rat plasma half-life assay; assay type: in vitro ADME; details: 37° C., LC-MS, read-out: Rat Plasma T½ (converted)
[3] = molecular target: T1, human recombinant GIP receptor (Homo sapiens, UniProt P48546); assay: In vitro hGIP receptor binding assay
T1 construct: expressed in transfected cells; host or cells: CHO-K1 clonal cells (membrane preparation)
T1 sequence (P48546 22-466): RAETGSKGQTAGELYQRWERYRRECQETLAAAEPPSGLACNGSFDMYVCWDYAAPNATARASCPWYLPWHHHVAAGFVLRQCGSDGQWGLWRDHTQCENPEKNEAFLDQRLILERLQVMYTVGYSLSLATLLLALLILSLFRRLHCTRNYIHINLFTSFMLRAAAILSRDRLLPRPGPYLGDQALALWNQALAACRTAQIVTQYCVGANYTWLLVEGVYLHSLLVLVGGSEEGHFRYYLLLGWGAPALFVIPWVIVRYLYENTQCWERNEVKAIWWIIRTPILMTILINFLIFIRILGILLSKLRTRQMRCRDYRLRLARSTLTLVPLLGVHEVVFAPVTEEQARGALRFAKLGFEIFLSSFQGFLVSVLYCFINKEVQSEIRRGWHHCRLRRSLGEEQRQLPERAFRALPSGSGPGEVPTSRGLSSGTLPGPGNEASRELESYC
Procedure: A. In Vitro hGIP Receptor Binding Assay […] The incubations were terminated by rapid filtration through GF/C filters (pre-soaked in 0.5% polyethylenimine) using a Brandel filtration manifold. Each tube and filter were then washed three times with 5-ml aliquots of ice-cold buffer.

Compound | half-life at 0.1 mg/ml [1] | half-life at 0.1 mg/ml [2] | Ki [3]
CC[C@H](C)[C@H](NC(=O)[C@H](CCCCN)NC(=O)[C@H](CC(=O)O)NC(=O)[C@H](CCSC)NC(=O)[C@H](C)NC(=O)[C@@H](NC(=O)C1(NC(=O)[C@H](Cc2ccc(O)cc2)NC(=O)[C@H](CC(=O)O)NC(=O)[C@H](CO)NC(=O)[C@@H](NC(=O)[C@H](Cc2ccccc2)NC(=O)[C@@H](NC(=O)CNC(=O)[C@H](CCC(=O)O)NC(=O)C(C)(C)NC(=O)[C@@H](N)CCc2ccc(O)cc2)[C@@H](C)O)[C@@H](C)CC)CCCC1)[C@@H](C)CC)C(=O)N[C@@H](Cc1c[nH]cn1)C(=O)N[C@@H](CCC(N)=O)C(=O)N[C@@H](CCC(N)=O)C(=O)N[C@@H](CC(=O)O)C(=O)N[C@@H](Cc1ccccc1)C(=O)N[C@H](C(=O)N[C@@H](CC(N)=O)C(=O)N[C@@H](Cc1c[nH]c2ccccc12)C(=O)N[C@@H](CC(C)C)C(=O)N[C@@H](CC(C)C)C(=O)N[C@@H](C)C(=O)N[C@@H](CCC(N)=O)C(=O)N[C@@H](CCCCN)C(=O)NCC(=O)N[C@@H](CCCCN)C(=O)N[C@@H](CCCCN)C(=O)N[C@@H](CC(N)=O)C(=O)N[C@@H](CC(=O)O)C(=O)N[C@@H](Cc1c[nH]c2ccccc12)C(=O)N[C@@H](CCCCN)C(=O)N[C@@H](Cc1c[nH]cn1)C(=O)N[C@@H](CC(N)=O)C(=O)N[C@H](C(=O)N[C@H](C(=O)N[C@@H](CCC(N)=O)C(=O)N[C@@H](Cc1c[nH]cn1)C(=O)O)[C@@H](C)O)[C@@H](C)CC)C(C)C [Example 80, (hTyr^1, Aib^2, A5c^11, His^43)hGIP(1-43)-OH] | 22.6 h | 18.4 h | 9.42 nM
Desaminotyrosyl-A[Pip]GTF[Ac6c]SDYSIAMDKIHQQDFVNWLLAQKGKKNDWKHNITQ [Example 8, (4Hppa^1, hPro^3, A6c^7)hGIP(1-42)-OH] | > 53 h | 12.9 h | 707 nM
CCCC[C@H](NC(=O)[C@H](C)NC(=O)[C@@H](NC(=O)C1(NC(=O)[C@H](Cc2ccc(O)cc2)NC(=O)[C@H](CC(=O)O)NC(=O)[C@H](CO)NC(=O)[C@@H](NC(=O)[C@H](Cc2ccccc2)NC(=O)[C@@H](NC(=O)CNC(=O)[C@H](CCC(=O)O)NC(=O)C(C)(C)NC(=O)[C@@H](N)Cc2cc(F)c(F)c(F)c2)[C@@H](C)O)[C@@H](C)CC)CCCC1)[C@@H](C)CC)C(=O)N[C@@H](CC(=O)O)C(=O)N[C@@H](CCCCN)C(=O)N[C@H](C(=O)N[C@@H](Cc1c[nH]cn1)C(=O)N[C@@H](CCC(N)=O)C(=O)N[C@@H](CCC(N)=O)C(=O)N[C@@H](CC(=O)O)C(=O)N[C@@H](Cc1ccccc1)C(=O)N[C@H](C(=O)N[C@@H](CC(N)=O)C(=O)N[C@@H](Cc1c[nH]c2ccccc12)C(=O)N[C@@H](CC(C)C)C(=O)N[C@@H](CC(C)C)C(=O)N[C@@H](C)C(=O)N[C@@H](CCC(N)=O)C(=O)N[C@@H](CCCCN)C(=O)NCC(=O)N[C@@H](CCCCN)C(=O)N[C@@H](CCCCN)C(=O)N[C@@H](CC(N)=O)C(=O)N[C@@H](CC(=O)O)C(=O)N[C@@H](Cc1c[nH]c2ccccc12)C(=O)N[C@@H](CCCCN)C(=O)N[C@@H](Cc1c[nH]cn1)C(=O)N[C@@H](CC(N)=O)C(=O)N[C@H](C(=O)N[C@H](C(=O)N[C@@H](CCC(N)=O)C(=O)O)[C@@H](C)O)[C@@H](C)CC)C(C)C)[C@@H](C)CC [Example 22, (3,4,5F-Phe^1, Aib^2, A5c^11, Nle^14)hGIP(1-42)-OH] | > 74 h | 69.3 h | 31.1 nM
CCCC[C@H](NC(=O)[C@H](C)NC(=O)[C@@H](NC(=O)C1(NC(=O)[C@H](Cc2ccc(O)cc2)NC(=O)[C@H](CC(=O)O)NC(=O)[C@H](CO)NC(=O)[C@@H](NC(=O)[C@H](Cc2ccccc2)NC(=O)[C@@H](NC(=O)CNC(=O)[C@H](CCC(=O)O)NC(=O)C(C)(C)NC(=O)[C@@H](N)Cc2cccc(F)c2)[C@@H](C)O)[C@@H](C)CC)CCCC1)[C@@H](C)CC)C(=O)N[C@@H](CC(=O)O)C(=O)N[C@@H](CCCCN)C(=O)N[C@H](C(=O)N[C@@H](Cc1c[nH]cn1)C(=O)N[C@@H](CCC(N)=O)C(=O)N[C@@H](CCC(N)=O)C(=O)N[C@@H](CC(=O)O)C(=O)N[C@@H](Cc1ccccc1)C(=O)N[C@H](C(=O)N[C@@H](CC(N)=O)C(=O)N[C@@H](Cc1c[nH]c2ccccc12)C(=O)N[C@@H](CC(C)C)C(=O)N[C@@H](CC(C)C)C(=O)N[C@@H](C)C(=O)N[C@@H](CCC(N)=O)C(=O)N[C@@H](CCCCN)C(=O)NCC(=O)N[C@@H](CCCCN)C(=O)N[C@@H](CCCCN)C(=O)N[C@@H](CC(N)=O)C(=O)N[C@@H](CC(=O)O)C(=O)N[C@@H](Cc1c[nH]c2ccccc12)C(=O)N[C@@H](CCCCN)C(=O)N[C@@H](Cc1c[nH]cn1)C(=O)N[C@@H](CC(N)=O)C(=O)N[C@H](C(=O)N[C@H](C(=O)N[C@@H](CCC(N)=O)C(=O)O)[C@@H](C)O)[C@@H](C)CC)C(C)C)[C@@H](C)CC [Example 23, (3F-Phe^1, Aib^2, A5c^11, Nle^14)hGIP(1-42)-OH] | > 74 h | > 74 h | 2.7 nM
CCCC[C@H](NC(=O)[C@H](C)NC(=O)[C@@H](NC(=O)C1(NC(=O)[C@H](Cc2ccc(O)cc2)NC(=O)[C@H](CC(=O)O)NC(=O)[C@H](CO)NC(=O)[C@@H](NC(=O)[C@H](Cc2ccccc2)NC(=O)[C@@H](NC(=O)CNC(=O)[C@H](CCC(=O)O)NC(=O)C(C)(C)NC(=O)[C@@H](N)Cc2ccc(Cl)cc2)[C@@H](C)O)[C@@H](C)CC)CCCC1)[C@@H](C)CC)C(=O)N[C@@H](CC(=O)O)C(=O)N[C@@H](CCCCN)C(=O)N[C@H](C(=O)N[C@@H](Cc1c[nH]cn1)C(=O)N[C@@H](CCC(N)=O)C(=O)N[C@@H](CCC(N)=O)C(=O)N[C@@H](CC(=O)O)C(=O)N[C@@H](Cc1ccccc1)C(=O)N[C@H](C(=O)N[C@@H](CC(N)=O)C(=O)N[C@@H](Cc1c[nH]c2ccccc12)C(=O)N[C@@H](CC(C)C)C(=O)N[C@@H](CC(C)C)C(=O)N[C@@H](C)C(=O)N[C@@H](CCC(N)=O)C(=O)N[C@@H](CCCCN)C(=O)NCC(=O)N[C@@H](CCCCN)C(=O)N[C@@H](CCCCN)C(=O)N[C@@H](CC(N)=O)C(=O)N[C@@H](CC(=O)O)C(=O)N[C@@H](Cc1c[nH]c2ccccc12)C(=O)N[C@@H](CCCCN)C(=O)N[C@@H](Cc1c[nH]cn1)C(=O)N[C@@H](CC(N)=O)C(=O)N[C@H](C(=O)N[C@H](C(=O)N[C@@H](CCC(N)=O)C(=O)O)[C@@H](C)O)[C@@H](C)CC)C(C)C)[C@@H](C)CC [Example 20, (Cpa^1, Aib^2, A5c^11, Nle^14)hGIP(1-42)-OH] | > 74 h | 24.3 h | 9.4 nM
CCCC[C@H](NC(=O)[C@H](C)NC(=O)[C@@H](NC(=O)C1(NC(=O)[C@H](Cc2ccc(O)cc2)NC(=O)[C@H](CC(=O)O)NC(=O)[C@H](CO)NC(=O)[C@@H](NC(=O)[C@H](Cc2ccccc2)NC(=O)[C@@H](NC(=O)CNC(=O)[C@H](CCC(=O)O)NC(=O)C(C)(C)NC(=O)[C@@H](N)Cc2ccc(N)cc2)[C@@H](C)O)[C@@H](C)CC)CCCC1)[C@@H](C)CC)C(=O)N[C@@H](CC(=O)O)C(=O)N[C@@H](CCCCN)C(=O)N[C@H](C(=O)N[C@@H](Cc1c[nH]cn1)C(=O)N[C@@H](CCC(N)=O)C(=O)N[C@@H](CCC(N)=O)C(=O)N[C@@H](CC(=O)O)C(=O)N[C@@H](Cc1ccccc1)C(=O)N[C@H](C(=O)N[C@@H](CC(N)=O)C(=O)N[C@@H](Cc1c[nH]c2ccccc12)C(=O)N[C@@H](CC(C)C)C(=O)N[C@@H](CC(C)C)C(=O)N[C@@H](C)C(=O)N[C@@H](CCC(N)=O)C(=O)N[C@@H](CCCCN)C(=O)NCC(=O)N[C@@H](CCCCN)C(=O)N[C@@H](CCCCN)C(=O)N[C@@H](CC(N)=O)C(=O)N[C@@H](CC(=O)O)C(=O)N[C@@H](Cc1c[nH]c2ccccc12)C(=O)N[C@@H](CCCCN)C(=O)N[C@@H](Cc1c[nH]cn1)C(=O)N[C@@H](CC(N)=O)C(=O)N[C@H](C(=O)N[C@H](C(=O)N[C@@H](CCC(N)=O)C(=O)O)[C@@H](C)O)[C@@H](C)CC)C(C)C)[C@@H](C)CC [Example 18, (4NH2-Phe^1, Aib^2, A5c^11, Nle^14)hGIP(1-42)-OH] | > 72 h | 32.1 h | 3.4 nM
CCCC[C@H](NC(=O)C(C)(C)NC(=O)[C@@H](NC(=O)[C@H](CO)NC(=O)[C@H](Cc1ccc(O)cc1)NC(=O)[C@H](CC(=O)O)NC(=O)[C@H](CO)NC(=O)[C@@H](NC(=O)[C@H](Cc1ccccc1)NC(=O)[C@@H](NC(=O)CNC(=O)[C@H](CCC(=O)O)NC(=O)C(C)(C)NC(=O)[C@@H](N)Cc1c[nH]cn1)[C@@H](C)O)[C@@H](C)CC)[C@@H](C)CC)C(=O)N[C@@H](CC(=O)O)C(=O)N[C@@H](CCCCN)C(=O)N[C@H](C(=O)N[C@@H](Cc1c[nH]cn1)C(=O)N[C@@H](CCC(N)=O)C(=O)N[C@@H](CCC(N)=O)C(=O)N[C@@H](CC(=O)O)C(=O)N[C@@H](Cc1ccccc1)C(=O)N[C@H](C(=O)N[C@@H](CC(N)=O)C(=O)N[C@@H](Cc1c[nH]c2ccccc12)C(=O)N[C@@H](CC(C)C)C(=O)N[C@@H](CC(C)C)C(=O)N[C@@H](C)C(=O)N[C@@H](CCC(N)=O)C(=O)N[C@@H](CCCCN)C(=O)NCC(=O)N[C@@H](CCCCN)C(=O)N[C@@H](CCCCN)C(=O)N[C@@H](CC(N)=O)C(=O)N[C@@H](CC(=O)O)C(=O)N[C@@H](Cc1c[nH]c2ccccc12)C(=O)N[C@@H](CCCCN)C(=O)N[C@@H](Cc1c[nH]cn1)C(=O)N[C@@H](CC(N)=O)C(=O)N[C@H](C(=O)N[C@H](C(=O)N[C@@H](CCC(N)=O)C(=O)O)[C@@H](C)O)[C@@H](C)CC)C(C)C)[C@@H](C)CC [Example 10, (His^1, Aib^2, 13, Nle^14)hGIP(1-42)-OH] | 71.4 h | 9.2 h | 3.33 nM
